According to paper PMC9004391, “Cytochrome P450 Monooxygenase/Cytochrome P450 Reductase Bi-Enzymatic System Isolated From Ilex asprella for Regio-Specific Oxidation of Pentacyclic Triterpenoids” (Frontiers in Plant Science, 2022):

Key:
IaCPR = tested on: T1, IaCPR; test: reductase activity by absorbance, microplate reader; format: biochemical, Ilex asprella; conditions: electron acceptor for this constant, pH and temperature not printed in main text
T1 construct: full ORF 2,133 bp, 710 aa; pET32a (vector fusion tag), E. coli Transetta (DE3), Ni-NTA

IaAO4 = biological target: T2, IaAO4 (Ilex asprella, UniProt A0A976SHZ5); test: yeast metabolite analysis by GC-MS; format: cell-based; conditions: S. cerevisiae WAT11tfAX co-expressing IaAO1
T2 construct: 513 aa ORF (1,539 bp); pESC-URA in S. cerevisiae WAT11tfAX co-expressing IaAO1
T2 sequence (A0A976SHZ5 1-512): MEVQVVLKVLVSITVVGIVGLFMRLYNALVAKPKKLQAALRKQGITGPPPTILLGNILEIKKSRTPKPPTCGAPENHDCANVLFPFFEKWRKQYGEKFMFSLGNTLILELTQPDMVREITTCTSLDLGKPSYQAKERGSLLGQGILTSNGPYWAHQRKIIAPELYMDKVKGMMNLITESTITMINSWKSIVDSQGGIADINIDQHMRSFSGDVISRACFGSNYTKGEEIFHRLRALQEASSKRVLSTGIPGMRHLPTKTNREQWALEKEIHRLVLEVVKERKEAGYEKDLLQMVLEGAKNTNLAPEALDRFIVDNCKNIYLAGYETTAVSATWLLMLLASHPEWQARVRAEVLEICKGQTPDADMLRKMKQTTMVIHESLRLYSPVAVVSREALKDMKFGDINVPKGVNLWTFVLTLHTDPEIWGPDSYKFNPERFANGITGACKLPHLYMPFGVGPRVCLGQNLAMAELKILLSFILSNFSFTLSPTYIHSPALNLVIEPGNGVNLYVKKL

IaAO5 = biological target: T3, IaAO5 (Ilex asprella, UniProt A0A976SHZ3); test: yeast metabolite analysis by GC-MS; format: cell-based; conditions: S. cerevisiae WAT11tfA co-expressing IaAS2; C-24 oxidation to α-boswellic acid; not seen in strain WAT11tfAX
T3 construct: 515 aa ORF (1,545 bp); pESC-TRP in S. cerevisiae WAT11tfA co-expressing IaAS2
T3 sequence (A0A976SHZ3 1-514): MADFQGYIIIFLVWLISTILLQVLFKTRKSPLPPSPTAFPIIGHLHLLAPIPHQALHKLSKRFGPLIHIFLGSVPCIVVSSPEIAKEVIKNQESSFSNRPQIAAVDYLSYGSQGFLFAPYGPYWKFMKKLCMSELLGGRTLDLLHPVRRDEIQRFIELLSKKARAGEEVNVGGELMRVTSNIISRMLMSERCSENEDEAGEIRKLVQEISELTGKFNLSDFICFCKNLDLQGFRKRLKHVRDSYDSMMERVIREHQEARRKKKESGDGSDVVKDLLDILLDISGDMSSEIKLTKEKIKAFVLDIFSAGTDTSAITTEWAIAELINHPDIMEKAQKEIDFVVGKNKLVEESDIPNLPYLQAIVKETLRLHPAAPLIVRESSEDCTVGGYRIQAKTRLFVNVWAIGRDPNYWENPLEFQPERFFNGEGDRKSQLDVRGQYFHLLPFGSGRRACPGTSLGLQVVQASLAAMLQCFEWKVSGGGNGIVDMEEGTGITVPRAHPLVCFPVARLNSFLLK

NC(=O)C1=CN([C@@H]2O[C@H](COP(=O)(O)OP(=O)(O)OC[C@H]3O[C@@H](n4cnc5c(N)ncnc54)[C@H](OP(=O)(O)O)[C@@H]3O)[C@@H](O)[C@H]2O)C=CC1 [NADPH]
Km (IaCPR): 7.69 µM

CC1(C)CC[C@]2(C(=O)O)CC[C@]3(C)C(=CC[C@@H]4[C@@]5(C)CC[C@H](O)C(C)(C)[C@@H]5CC[C@]43C)[C@@H]2C1 [oleanolic acid]
yeast metabolite analysis by GC-MS (IaAO4; C-23 oxidation to hederagenin and gypsogenic acid): catalyzing the oxidation of both OA and UA at the C-23 position

C[C@H]1[C@H](C)CC[C@]2(C(=O)O)CC[C@]3(C)C(=CC[C@@H]4[C@@]5(C)CC[C@H](O)C(C)(C)[C@@H]5CC[C@]43C)[C@H]12 [ursolic acid]
yeast metabolite analysis by GC-MS (IaAO4; C-23 oxidation, products 23-hydroxyl- and 23-carboxyl-ursolic acid tentative): catalyzing the oxidation of both OA and UA at the C-23 position

CC1(C)CC[C@]2(C)CC[C@]3(C)C(=CC[C@@H]4[C@@]5(C)CC[C@H](O)C(C)(C)[C@@H]5CC[C@]43C)[C@@H]2C1 [β-amyrin]
yeast metabolite analysis by GC-MS (IaAO5): catalyzes oxidation at the C-24 position of β-amyrin to yield α-Boswellic acid
